Laboratory results reported in patent US6413996B2, “Diaminocyclobutene-3,4-dione derivatives, their preparation and use” (Neurosearch A/S, priority 1998, dated 2002).
Values belong to the compound of their own block, whether it stands above or below them.

Tests used:
[1] = tested on: vacuolar-type proton pump; conditions: cited from earlier work
[2] = tested on: osteoclast bone resorbtion; conditions: in vitro (Ohba et al, 1996); cited from earlier work
bone degration = conditions: in vivo, growing young rats (Keeling et al, 1997); cited from earlier work
[3] = tested on: chloride channels in normal erythrocytes; test: Cl- conductance (GCl) from concomitant measurement of conductive Cl- netfluxes and membrane potentials in erythrocyte suspensions; type: cell-based, human; conditions: suspension of normal erythrocytes
Excerpt: (§1) The compounds of the present invention are potent blockers of chloride channels in normal as well as sickle cell erythrocytes.
(§2) All dose-response experiments were therefore performed by concomitant measurements of conductive netfluxes of Cl^− (JCl) and membrane potentials (Vm) in suspensions of erythrocytes (Bennekou, P. and Christophersen, P. (1986), Flux ratio of Valinomycin - Mediated K^+ Fluxes across the Human Red Cell Membrane in the presence of the Protronophore CCCP. J. Membrane Biol. 93, 221-227. ). The membrane Cl^−conductances (GCl) were calculated by the following equation (Hodgkin, A. L. and Huxley, A. F. (1952) The components of membrane conductance in the giant axon of Loligo. J. Physiol. Lond. 116, 449-472): [formula]
(§3) where F is the Faraday constant, ECl is the Nernst potential for the Cl-ion.

normal erythrocytes = test: K+-flux estimated by measuring extracellular K+-concentration vs time; type: cell-based; conditions: 10 μM
Excerpt: Deoxygenation induced permeability increases of sickle cells were estimated by measuring the extracellular K^+-concentration vs time. […] The K^+ flux from oxygenated sickle erythrocytes was 2-3 times higher than from normal erythrocytes and these fluxes was accelerated 4 - 8 times upon deoxygenation.

[4] = tested on: chloride channels in homozygoteous sickle cell erythrocytes; test: Cl- conductance (GCl) in suspensions of sickle cell erythrocytes; type: cell-based; conditions: oxygenated as well as deoxygenated homozygoteous sickle cell erythrocytes
Excerpt: as §1, §2, §3

Structure (SMILES): COc1ccc2[nH]c([S+]([O-])Cc3ncc(C)c(OC)c3C)nc2c1 (stereo not drawn) [omeprazol]
- block of the proton pump [1]: ineffective

Structure (SMILES): CO/C1=C\C(C)=C\[C@@H](C)[C@@H](O)[C@@H](C)C/C(C)=C/C=C/[C@H](OC)[C@@H]([C@@H](C)[C@@H](O)[C@H](C)[C@@]2(O)C[C@@H](O)[C@H](C)[C@@H](C(C)C)O2)OC1=O [bafilomycin A1]
- effect on bone resorbtion in pit formation assay [2]: completely eliminates bone resorbtion
- effect on bone degration (bone degration): depresses bone degration
- block of the proton pump [1]: extremely potent, reversible inhibitor

Structure (SMILES): CC(=O)Nc1nnc(S(N)(=O)=O)s1 [acetacolamide]
- effect on bone resorbtion in pit formation assay [2]: effective

- Kd ([3]; read-out: KD-value for block of GCl): 1300 nM
Structure (SMILES): O=C(Nc1cccc(C(F)(F)F)c1)Nc1ccccc1C(=O)O [3-Trifluoromethylphenyl-2-carboxyphenyl urea]
- block of GCl [3]: more than 95%
- sensitivity of K+-fluxes to compound (normal erythrocytes): insensitive
- block of GCl from sickle cell erythrocytes [4]: equipotently blocked
